# From publication PMC9403987 (Frontiers in Oncology, 2022)
# Key:
# Test in all cases: Cell proliferation assay
# Assay type in all cases: cell-based, Homo sapiens
# SW620 = settings: SW620, colon carcinoma, 72 hours
# Protocol: (§1) To quantify cell proliferation, either the nuclei of live cells were counted following staining with 4’,6-diamidino-2-phenylindole (DAPI; Sigma-Aldrich, Burlington, MA, USA), or metabolically active cells were detected using a CellTiter-Glo assay (Promega Corporation, Madison, WI, USA). Cells from a range of human and mammalian tumor cell lines (American Type Culture Collection, Manassas, VA, USA) were seeded at 4000 cells per well in 100 μL of culture medium in a 96-well plate and incubated overnight at 37°C with 5% CO2. […] In the DAPI staining method, cells were washed using 1× phosphate-buffered saline (PBS; Gibco Thermo Fisher Scientific, Waltham, MA, USA), fixed with 4% formaldehyde, permeabilized with 0.2% Triton X-100 (Sigma-Aldrich), washed again, and stained with 1 μg/mL DAPI to visualize cell nuclei. Cells were washed with 1× PBS three times, and 100 μL 1× PBS was added to each well. Plates were scanned using an IN Cell Analyzer 2200 (GE Healthcare Life Sciences, Chicago, IL, USA) and the number of cells per well was recorded. In the CellTiter-Glo assay, 60 μL of CellTiter-Glo luminescent solution was added to each well after incubation with the test compounds, and the assay plate was scanned using a Tecan Infinite M1000 PRO microplate reader (Tecan Group AG, Männedorf, Switzerland) to record luminescent signals.
# NCI-H1703 = settings: NCI-H1703, lung, NSCLC, 72 hours
# Protocol: as §1
# LoVo = settings: colorectal carcinoma, 72 hours
# Protocol: as §1
# U118-MG = settings: brain, glioblastoma, 72 hours
# Protocol: as §1
# NCI-H1581 = settings: NCI-H1581, lung, NSCLC, 72 hours
# Protocol: as §1
# A549 = settings: A549, lung carcinoma, 72 hours
# Protocol: as §1
# Du4475 = settings: Du4475, breast carcinoma, 72 hours
# Protocol: as §1
# NCI-H1792 = settings: NCI-H1792, lung carcinoma, 72 hours
# Protocol: as §1
# SNU-761 = settings: SNU-761, lung carcinoma, 72 hours
# Protocol: as §1
# SW1088 = settings: SW1088, brain, grade II astrocytoma, 72 hours
# Protocol: as §1
# NCI-H1155 = settings: NCI-H1155, lung, NSCLC, 72 hours
# Protocol: as §1
# CHP-212 = settings: CHP-212, brain, neuroblastoma, 72 hours
# Protocol: as §1
# HCT15 = settings: HCT15, colorectal carcinoma, 72 hours
# Protocol: as §1
# M059K = settings: brain, glioblastoma, 72 hours
# Protocol: as §1
# SW948 = settings: SW948, colon carcinoma, 72 hours
# Protocol: as §1
# HCT8 = settings: HCT8, colorectal carcinoma, 72 hours
# Protocol: as §1
# HL7702 = settings: HL7702, liver, 72 hours
# Protocol: as §1
# NCI-H23 = settings: NCI-H23, lung, NSCLC, 72 hours
# Protocol: as §1
# DLD-2 = settings: DLD-2, colorectal carcinoma, 72 hours
# Protocol: as §1
# T47D = settings: breast carcinoma, 72 hours
# Protocol: as §1
# Li-7 = settings: Li-7, liver, hepatocellular carcinoma, 72 hours
# Protocol: as §1
# SK-MES-1 = settings: SK-MES-1, lung carcinoma, 72 hours
# Protocol: as §1
# NCI-H1299 = settings: NCI-H1299, lung, NSCLC, 72 hours
# Protocol: as §1
# SK-N-AS = settings: brain, neuroblastoma, 72 hours
# Protocol: as §1
# HLF = settings: lung, epidermoid carcinoma, 72 hours
# Protocol: as §1
# DBTRG-05MG = settings: brain, glioblastoma, 72 hours
# Protocol: as §1
# MDA-MB-231 = settings: MDA-MB-231, breast carcinoma, 72 hours
# Protocol: as §1
# KNS-81 = settings: KNS-81, brain, glioblastoma, 72 hours
# Protocol: as §1
# IMR32 = settings: IMR32, brain, neuroblastoma, 72 hours
# Protocol: as §1
# BEL7405 = settings: BEL7405, liver, hepatocellular carcinoma, 72 hours
# Protocol: as §1
# SNU-886 = settings: SNU-886, liver, hepatocellular carcinoma, 72 hours
# Protocol: as §1
# Daoy = settings: brain, desmoplastic cerebellar medulloblastoma, 72 hours
# Protocol: as §1
# SNU-182 = settings: SNU-182, liver, hepatocellular carcinoma, 72 hours
# Protocol: as §1
# U87/DK = settings: brain, glioblastoma, 72 hours
# Protocol: as §1
# SNU-475 = settings: SNU-475, liver, hepatocellular carcinoma, 72 hours
# Protocol: as §1
structure (smiles),measurement,setting,value
"CCN1CCN(Cc2ccc(Nc3ncc(F)c(-c4cc(F)c5nc(C)n(C(C)C)c5c4)n3)nc2)CC1 [Abemaciclib, abemaciclib, reference compound]",IC50,"SW620; Homo sapiens, SW-620",10 nM
same,IC50,NCI-H1703; Homo sapiens,93 nM
same,IC50,LoVo; Homo sapiens,25 nM
same,IC50,"U118-MG; Homo sapiens, U-118-MG",86 nM
same,IC50,NCI-H1581; Homo sapiens,3230 nM
same,IC50,A549; Homo sapiens,104 nM
same,IC50,"Du4475; Homo sapiens, DU-4475",10000 nM
same,IC50,NCI-H1792; Homo sapiens,23 nM
same,IC50,SNU-761; Homo sapiens,54 nM
same,IC50,SW1088; Homo sapiens,471 nM
same,IC50,NCI-H1155; Homo sapiens,2410 nM
same,IC50,CHP-212; Homo sapiens,32 nM
same,IC50,"HCT15; Homo sapiens, HCT-15",294 nM
same,IC50,M059K; Homo sapiens,871 nM
same,IC50,SW948; Homo sapiens,586 nM
same,IC50,"HCT8; Homo sapiens, HCT-8",384 nM
same,IC50,"HL7702; Homo sapiens, L02",1720 nM
same,IC50,NCI-H23; Homo sapiens,904 nM
same,IC50,"DLD-2; Homo sapiens, DLD2",237 nM
same,IC50,T47D; Homo sapiens,12 nM
same,IC50,Li-7; Homo sapiens,6290 nM
same,IC50,SK-MES-1; Homo sapiens,148 nM
same,IC50,NCI-H1299; Homo sapiens,463 nM
same,IC50,SK-N-AS; Homo sapiens,138 nM
same,IC50,HLF; Homo sapiens,4950 nM
same,IC50,DBTRG-05MG; Homo sapiens,13 nM
same,IC50,MDA-MB-231; Homo sapiens,48 nM
same,IC50,KNS-81; Homo sapiens,106 nM
same,IC50,"IMR32; Homo sapiens, IMR-32",25 nM
same,IC50,BEL7405; Homo sapiens,2140 nM
same,IC50,SNU-886; Homo sapiens,25 nM
same,IC50,Daoy; Homo sapiens,> 10000 nM
same,IC50,SNU-182; Homo sapiens,> 10000 nM
same,IC50,U87/DK; Homo sapiens,15 nM
same,IC50,SNU-475; Homo sapiens,195 nM
CC1=Nc2c(F)cc(-c3nc(Nc4ccc(C5CCN(C)CC5)cn4)ncc3F)cc2C12CCCC2 [GLR2007],IC50,SW620,10 nM
same,IC50,NCI-H1703,3 nM
same,IC50,LoVo,13 nM
same,IC50,U118-MG,23 nM
same,IC50,NCI-H1581,1120 nM
same,IC50,A549,66 nM
same,IC50,Du4475,2040 nM
same,IC50,NCI-H1792,3 nM
same,IC50,SNU-761,8 nM
same,IC50,SW1088,143 nM
same,IC50,NCI-H1155,1820 nM
same,IC50,CHP-212,18 nM
same,IC50,HCT15,43 nM
same,IC50,M059K,3250 nM
same,IC50,SW948,189 nM
same,IC50,HCT8,81 nM
same,IC50,HL7702,1940 nM
same,IC50,NCI-H23,243 nM
same,IC50,DLD-2,33 nM
same,IC50,T47D,1 nM
same,IC50,Li-7,712 nM
same,IC50,SK-MES-1,67 nM
same,IC50,NCI-H1299,564 nM
same,IC50,SK-N-AS,66 nM
same,IC50,HLF,2010 nM
same,IC50,DBTRG-05MG,6 nM
same,IC50,MDA-MB-231,44 nM
same,IC50,KNS-81,33 nM
same,IC50,IMR32,21 nM
same,IC50,BEL7405,1150 nM
same,IC50,SNU-886,6 nM
same,IC50,Daoy,3960 nM
same,IC50,SNU-182,2240 nM
same,IC50,U87/DK,3 nM
same,IC50,SNU-475,85 nM
